# Experimental data reported in patent US10512631B2, “Chalcone compounds” (Beth Israel Deaconess Medical Center, Inc., priority 2015, dated 2019).
# Columns and labels:
# Assay type in all cases: cell-based
# [1] = system: A549; experiment: Cytoxicity / crystal violet staining, A549; conditions: average of triplicates, % of apoptotic cells vs DMSO controls, N.A. = not active at 10 μM
# Description: (§1) PC3 (provided by Dr. Steven Balk's laboratory in Department of Medicine at Beth Israel Deaconess Medical Center), PANC02 and CRL2119 (provided by Dr. Pankaja Seth's laboratory in Department of Medicine at Beth Israel Deaconess Medical Center), A549 (ATCC) cell lines were cultured according to manufacturer's protocols. Briefly, PC3 were cultured in RPMI medium supplemented with 10% FBS (Atlanta). PANC-2, A549 and CRL2119 were cultured in DMEM High medium supplemented with 10% FBS (Atlanta). Human bronchial epithelial cells (BEC) were cultured in Airway Epithelial Cell Basal Medium with the Bronchial Epithelial cell growth kit (ATCC) according to manufacturer's protocol and used at passages 3-5.
# (§2) Cells were seeded at 5×10^3 concentration in 96 well plates and treated with test compounds or DMSO (0.001-10 μM) for 72 hours. Culture medium was removed and cells were stained with crystal violet solution (Sigma-Aldrich) for 15 minutes while shaking at room temperature. Crystal violet was then removed and cells were repeatedly washed in water. Attached cells stained with crystal violet were dried and then resuspended in 10% acetic acid. Absorbance was measured at 562 nm. The intensity of staining corresponded directly to the number of live cells.
# [2] = system: PC3; experiment: Cytoxicity / crystal violet staining, PC3; conditions: average of triplicates, % of apoptotic cells vs DMSO controls, N.A. = not active at 10 μM
# Description: as §1, §2
# [3] = system: A549; experiment: Cytoxicity / crystal violet staining, A549; conditions: Homo sapiens, 0.01-5 μM for 72 hours, n=4
# [4] = system: A549 cells; experiment: Invasion chambers (Transwell, Matrigel); conditions: serum chemoattractants, compared to untreated cells
# Description: The invasion of A549 cells was measured using Transwell chambers (Chemicon, Millipore, Calif.) according to the manufacturer's protocol. Briefly, A549 cells were treated with test compounds at 1 μM in 500 μl of DMEM medium without FBS for 24 hours. Medium in the upper chamber was serum-free while medium in the lower chamber contained 10% FBS as a source of chemoattractants. Cells that passed through the Matrigel-coated membrane were stained and photographed after 24 hours of incubation. Absorbance was measured at 562 nm by ELISA reader after dissolving of stained cells in 10% acetic acid.
# [5] = system: PC3; experiment: Cytoxicity / crystal violet staining, PC3; conditions: Homo sapiens, PC-3; 0.01-5 μM for 72 hours, n=4
# [6] = system: PC3 cells; experiment: Immunostaining of α-tubulin and β-actin in PC3 cells; conditions: Compound 6 1 μM or docetaxel 20 nM, 24 hours
# Description: Immunofluorescence and immunostaining on cell lines and tumor samples were performed as described in Wegiel et al, Cancer research 2013, 73(23), 7009-21. Anti-mouse STMN1, anti-P (Ser10)-Histone H3, and α-tubulin antibody were obtained from Cell Signaling. β-actin antibody was obtained from Sigma-Aldrich. […] After immunofluorescence staining, the number of P-Histone H3 was quantified per field of view at 40× magnification using Zeiss Axiovert Microscope.
Compound,Cytoxicity (% cell killing at 10 μM) A549 [1],Cytoxicity (% cell killing at 10 μM) PC3 [2],IC50 [3],invasion / migration through matrigel coated chambers [4],IC50 [5],microtubule stability (α-tubulin immunostaining) [6]
O=C1/C(=C/c2ccc3[nH]ccc3c2)CCc2ccccc21 [Compound 1],47%,55%,,,,
Cn1ccc2cc(/C=C3\CCc4ccccc4C3=O)ccc21 [Compound 2],56%,52%,,,,
CCn1ccc2cc(/C=C3\CCc4ccccc4C3=O)ccc21 [Compound 3],52%,58%,,,,
Cn1ccc2ccc(/C=C3\CCc4ccccc4C3=O)cc21 [Compound 4],53%,61%,,,,
"O=C1/C(=C/c2ccc3[nH]ccc3c2)CCc2ccc(F)cc21 [Compound 7, (2E)-7-fluoro-2-(1H-indol-5-ylmethylidene)-1,2,3,4-tetrahydronaphthalen-1-one]",43%,45%,271 nM,accelerated migration,449 nM,
"CCn1ccc2cc(/C=C3\CCc4ccc(F)cc4C3=O)ccc21 [Compound 8, (2E)-2-[(1-ethyl-1H-indol-5-yl)methylidene]-7-fluoro-1,2,3,4-tetrahydronaphthalen-1-one]",38%,33%,113 nM,strongly inhibited invasion,106 nM,
CC(=O)n1ccc2cc(/C=C3\CCc4ccc(F)cc4C3=O)ccc21 [Compound 9],28%,24%,,,,
CCn1ccc2cc(/C=C3\CCc4ccc(OC)cc4C3=O)ccc21 [Compound 12],20%,49%,,,,
COc1ccc2c(c1)C(=O)/C(=C/c1ccc3[nH]ccc3c1)CC2 [Compound 13],5%,55%,,,,
COc1ccc2c(c1)C(=O)/C(=C/c1ccc3c(ccn3C)c1)CC2 [Compound 14],21%,18%,,,,
COc1ccc2c(c1)C(=O)/C(=C/c1ccc3ccn(C)c3c1)CC2 [Compound 15],24%,42%,,,,
COc1cc2c(cc1OC)C(=O)/C(=C/c1ccc3c(ccn3C)c1)CC2 [Compound 16],,31%,,,,
CCn1ccc2cc(/C=C3\CCc4cc(OC)c(OC)cc4C3=O)ccc21 [Compound 17],19%,45%,,,,
COc1cc2c(cc1OC)C(=O)/C(=C/c1ccc3ccn(C)c3c1)CC2 [Compound 18],41%,55%,,,,
O=C1/C(=C/c2ccc3[nH]ccc3c2)CCc2ccc(Br)cc21 [Compound 19],16%,42%,,,,
Cn1ccc2cc(/C=C3\CCc4ccc(Br)cc4C3=O)ccc21 [Compound 20],21%,47%,,,,
Cn1ccc2ccc(/C=C3\CCc4ccc(Br)cc4C3=O)cc21 [Compound 21],26%,39%,,,,
"CC(=O)O[C@@]12CO[C@@H]1C[C@H](O)[C@@]1(C)C(=O)[C@H](O)C3=C(C)[C@@H](OC(=O)[C@H](O)[C@@H](NC(=O)OC(C)(C)C)c4ccccc4)C[C@@](O)([C@@H](OC(=O)c4ccccc4)[C@H]21)C3(C)C [docetaxel, reference compound]",,,,,,stabilization of microtubules
